Results on 14 compounds are retold here after patent US9505713B2, “High-purity sodium p-styrenesulfonate with excellent hue, method for producing the same, poly(sodium p-styrenesulfonate) with excellent hue using the same, and dispersant and synthetic starch for clothing finishing using the poly(sodium p-styrenesulfonate)” (TOSOH ORGANIC CHEMICAL CO., LTD., priority 2012, dated 2016).

Common to all, as to format: physicochemical
Data set [1] in a line: APHA values of 15 wt % aqueous sodium p-styrenesulfonate and poly(sodium p-styrenesulfonate) solutions. Conditions: 15 wt % aqueous solution of the monomer. The protocol:
<Measurement of APHA values of Aqueous Sodium p-Styrenesulfonate and Aqueous Poly(Sodium p-Styrenesulfonate) Solutions>
After a color-difference meter (manufactured by Nippon Denshoku Industries Co., Ltd., C-106) was switched on and stabilized for 30 minutes, a measuring method was changed to transmission, and a light projection lens (30 mm in diameter) and a sample stand (30 mm in diameter) were attached thereto. A standard white plate and a 0-CAL plate were set, and zero calibration was performed. After water was poured in a square cell and standard calibration was performed, 15 wt % aqueous sodium p-styrenesulfonate solution and 15 wt % aqueous poly(sodium p-styrenesulfonate) solution samples were each transferred into the square cell, and set, followed by reading the APHA values (converted from a calibration curve prepared by using standard solutions having APHA values of 0 to 500).

Data set [2] is described as follows: Measurement of particle size distribution (laser diffraction/scattering, Microtrack HRA). The protocol:
<Measurement of Particle Size Distribution>
In a 30-ml glass sample bottle, 0.55 g of a sample and 15.0 g of isopropanol were collected, and treated with an ultrasonic washer for 4 minutes while keeping the temperature at 25° C. or less to prepare a slurry. Thereafter, the particle size (median diameter) distribution was measured under the following conditions, using a laser diffraction/scattering type particle size analyzer, Microtrack HRA (manufactured by Nikkiso Co., Ltd.).
Particle transparency=Transp
Particle refractive Index=1.55
Fluid refractive Index=1.38

A short description of data set [3]: Measurement of repose angle (fluidity of powder). The protocol: <Measurement of Repose Angle>
(1) Instruments and Apparatus
1) On a dish, 80 g of a sample is naturally dropped through a funnel of the apparatus.
2) The vertical angle (a) of a circular cone formed on the dish is read with the protractor up to a digit of an integer.
3) This operation is repeated 3 times, and the average value of the vertical angle (a) of the circular cone is determined.
(§1) The repose angle is calculated by the following equation. […] A=(180−a)/2 wherein A is the repose angle (degrees) and a is the vertical angle (degrees) of the circular cone. <Measurement of Rate of Dissolution (Solubility in Water)>

The nature of data set [4]: Measurement of rate of dissolution (solubility in water). The note with it: 25° C. The protocol: as §1
In a 20-ml glass sample bottle (27 mm in outer diameter×55 mm in depth), 1.00 g of a sodium p-styrenesulfonate powder (wet powder containing impurities and water) was accurately weighed in a temperature-controlled room of 25° C., and thereafter, 9.00 g of ion-exchanged water was quickly added thereto. Then, the sample bottle was turned upside down with a period of one cycle per second, and the time before dissolution of sodium p-styrenesulfonate was visually judged.

Data set [5] can be described thus: Whiteness and yellowness of sodium p-styrenesulfonate powder with color-difference meter. Conditions: sodium p-styrenesulfonate crystal powder. The protocol: <Measurement of Whiteness and Yellowness of Sodium p-Styrenesulfonate with Color-Difference Meter>
After a color-difference meter (manufactured by Nippon Denshoku Industries Co., Ltd., C-106) was switched on and stabilized for 30 minutes, a light projection lens (30 mm in diameter) and a sample stand (30 mm in diameter) were attached thereto, and standard adjustment was performed. In a cell, 3.0 g of a sample was weighed, and a weight of 1 kg was placed thereon for 30 seconds. Thereafter, it was confirmed that there were no space and no wrinkles at a bottom portion of the cell. Measurement was made with the color-difference meter to read the whiteness (WI value) and the yellowness (YI value).

The mark [6] stands for this setting: listed as sodium p-styrenesulfonate A.
Where [7] appears, read: sodium p-styrenesulfonate powder, Table 1.
Setting [8] is: sodium p-styrenesulfonate powder, Table 1, smaller = better fluidity.
The mark [9] stands for this setting: 1.00 g powder in 9.00 g ion-exchanged water, Table 1.
Where [10] appears, read: listed as sodium p-styrenesulfonate B.
[11] abbreviates: after purification, Table 2, 1.00 g in 9.00 g water.
Where [12] appears, read: before purification, Table 2, 1.00 g in 9.00 g water.

Each structure is given as a SMILES string. Values joined by “and” are separate entries in the source; they are usually repeats but may differ in a detail not shown here. Identical values can stand only once.

On to `C=Cc1ccc(S(=O)(=O)[O-])cc1.[Na+]` [Comparative Example 1, sodium p-styrenesulfonate], for which the “Solution APHA value (hue of sodium p-styrenesulfonate)” value in data set [1] and in data set [1] (setting [6]) was 220 each time. In data set [2] (setting [7]), this compound had a Median diameter of 20.2 μm. Also, in data set [2] (setting [7]), the “Small particles less than 10.00 μm” value was 12.6%. This compound also came in with a Repose angle in data set [3] (setting [8]) of 60 deg. The “Rate of dissolution (dissolution time in water)” value (“Rate of dissolution” for short) in data set [4] (setting [9]) was 132 s. In addition, the “Whiteness (WI value)” value in data set [5] and in data set [5] (setting [6]) was 90.2 in each case. In addition, the “Yellowness (YI value)” value in data set [5] and in data set [5] (setting [6]) was 16.5 each time.

Regarding `C=Cc1ccc(S(=O)(=O)[O-])cc1.[Na+]` [Comparative Example 3, sodium p-styrenesulfonate], in data set [1], the “Solution APHA value (hue of sodium p-styrenesulfonate)” value is recorded as 150. In addition, in data set [2] (setting [7]), the Median diameter was 21.5 μm and the “Small particles less than 10.00 μm” value is reported as 12.1%. In data set [3] (setting [8]), this compound registered a Repose angle of 59 deg. Also, the “Rate of dissolution” value in data set [4] (setting [9]) is 123 s. Moreover, in data set [5], the “Whiteness (WI value)” value is recorded as 93.5 and the “Yellowness (YI value)” value turned out to be 12.5.

`C=Cc1ccc(S(=O)(=O)[O-])cc1.[Na+]` [Comparative Example 4, sodium p-styrenesulfonate]: the “Solution APHA value (hue of sodium p-styrenesulfonate)” value in data set [1] is 120. Moreover, in data set [2] (setting [7]), the Median diameter worked out at 20.6 μm and the “Small particles less than 10.00 μm” value amounted to 14.3%. This compound also had a Repose angle in data set [3] (setting [8]) of 60 deg. In addition, in data set [4] (setting [9]), the “Rate of dissolution” value was determined as 126 s. For the same compound, in data set [5], the “Whiteness (WI value)” value amounted to 93.0 and the “Yellowness (YI value)” value amounted to 10.1.

As to `C=Cc1ccc(S(=O)(=O)[O-])cc1.[Na+]` [Comparative Example 6, sodium p-styrenesulfonate], the “Solution APHA value (hue of sodium p-styrenesulfonate)” value in data set [1] turned out to be 200. For the same compound, in data set [1] (setting [10]), the “Solution APHA value (hue of sodium p-styrenesulfonate)” value is 200. Moreover, in data set [2] (setting [7]), the Median diameter is recorded as 21.3 μm and the “Small particles less than 10.00 μm” value was 12.7%. Further, the Repose angle in data set [3] (setting [8]) is reported as 59 deg. In addition, the “Rate of dissolution” value in data set [4] (setting [9]) amounted to 122 s. Besides, in data set [5], the “Whiteness (WI value)” value was 91.0 and the “Yellowness (YI value)” value was 16.0. Moreover, in data set [5] (setting [10]), the “Whiteness (WI value)” value amounted to 91.0 and the “Yellowness (YI value)” value was 16.0.

On to `C=Cc1ccc(S(=O)(=O)[O-])cc1.[Na+]` [Comparative Example 7, sodium p-styrenesulfonate], for which the Median diameter in data set [2] (after purification, Table 2) is recorded as 22.3 μm; in data set [2] (before purification, Table 2) it was 19.8 μm. In addition, the “Small particles less than 10.00 μm” value is reported as 3.1% in data set [2] (after purification, Table 2) and 13.6% in data set [2] (before purification, Table 2). Besides, the Repose angle in data set [3] (after purification, Table 2) worked out at 58 deg; in data set [3] (before purification, Table 2) it was 59 deg. For the same compound, the “Rate of dissolution” value in data set [4] (setting [11]) worked out at 128 s; in data set [4] (setting [12]) it was 130 s.

As to `C=Cc1ccc(S(=O)(=O)[O-])cc1.[Na+]` [Comparative Example 8, sodium p-styrenesulfonate], in data set [2] (before purification, Table 2), the Median diameter is 160 μm and 160.0 μm; the “Small particles less than 10.00 μm” value worked out at 0.0%. Further, the Repose angle in data set [3] (before purification, Table 2) turned out to be 45 deg. Moreover, the “Rate of dissolution” value in data set [4] (setting [12]) was determined as 270 s.

For `C=Cc1ccc(S(=O)(=O)[O-])cc1.[Na+]` [Comparative Example 9, sodium p-styrenesulfonate], the Median diameter was 25.1 μm in data set [2] (after purification, Table 2) and 22.0 μm in data set [2] (before purification, Table 2). For the same compound, the “Small particles less than 10.00 μm” value in data set [2] (after purification, Table 2) turned out to be 1.6%; in data set [2] (before purification, Table 2) it was 12.5%. Also, the Repose angle in data set [3] (after purification, Table 2) stood at 58 deg; in data set [3] (before purification, Table 2) it was 59 deg. The “Rate of dissolution” value in data set [4] (setting [11]) came to 130 s; in data set [4] (setting [12]) it was 127 s.

On to `C=Cc1ccc(S(=O)(=O)[O-])cc1.[Na+]` [Example 1, sodium p-styrenesulfonate], for which, in data set [1], the “Solution APHA value (hue of sodium p-styrenesulfonate)” value is 30. Moreover, in data set [2] (setting [7]), the Median diameter was 81 μm and 81.0 μm; the “Small particles less than 10.00 μm” value is recorded as 0.5%. The Repose angle in data set [3] (setting [8]) came out at 46 deg. For the same compound, the “Rate of dissolution” value in data set [4] (setting [9]) was 165 s. For the same compound, in data set [5], the “Whiteness (WI value)” value was found to be 95.7 and the “Yellowness (YI value)” value stood at 5.8.

With `C=Cc1ccc(S(=O)(=O)[O-])cc1.[Na+]` [Example 2, sodium p-styrenesulfonate], the “Solution APHA value (hue of sodium p-styrenesulfonate)” value in data set [1] turned out to be 15. Moreover, in data set [2] (setting [7]), the Median diameter was 63 μm and 63.0 μm; the “Small particles less than 10.00 μm” value is recorded as 2.0%. This compound also returned a Repose angle in data set [3] (setting [8]) of 49 deg. Moreover, the “Rate of dissolution” value in data set [4] (setting [9]) is 155 s. Also, in data set [5], the “Whiteness (WI value)” value was 95.5 and the “Yellowness (YI value)” value was 2.9.

As to `C=Cc1ccc(S(=O)(=O)[O-])cc1.[Na+]` [Example 5, sodium p-styrenesulfonate], in data set [1], the “Solution APHA value (hue of sodium p-styrenesulfonate)” value was found to be 80. Also, in data set [2] (setting [7]), the Median diameter is 18.6 μm and the “Small particles less than 10.00 μm” value stood at 14.3%. Besides, in data set [3] (setting [8]), the Repose angle is 59 deg. Moreover, the “Rate of dissolution” value in data set [4] (setting [9]) was 130 s. In addition, in data set [5], the “Whiteness (WI value)” value was 95.0 and the “Yellowness (YI value)” value was 7.5.

As for `C=Cc1ccc(S(=O)(=O)[O-])cc1.[Na+]` [Example 6, sodium p-styrenesulfonate], in data set [2] (before purification, Table 2), the Median diameter came to 63.1 μm and the “Small particles less than 10.00 μm” value stood at 1.5%. This compound also had a Repose angle in data set [3] (before purification, Table 2) of 47 deg. The “Rate of dissolution” value in data set [4] (setting [12]) was 160 s.

For `C=Cc1ccc(S(=O)(=O)[O-])cc1.[Na+]` [Example 7, sodium p-styrenesulfonate], in data set [2] (before purification, Table 2), the Median diameter is 110 μm and 110.0 μm; the “Small particles less than 10.00 μm” value is on record as 0.0%. Moreover, the Repose angle in data set [3] (before purification, Table 2) stood at 43 deg. Also, the “Rate of dissolution” value in data set [4] (setting [12]) came out at 200 s.

Turning to `C=Cc1ccc(S(=O)(=O)[O-])cc1.[Na+]` [Example 8, sodium p-styrenesulfonate], in data set [2] (before purification, Table 2), the Median diameter is 37 μm and 37.0 μm; the “Small particles less than 10.00 μm” value was 3.1%. Also, the Repose angle in data set [3] (before purification, Table 2) worked out at 51 deg. In addition, the “Rate of dissolution” value in data set [4] (setting [12]) was 140 s.

For `C=Cc1ccc(S(=O)(=O)[O-])cc1.[Na+]` [Example 9, sodium p-styrenesulfonate], in data set [2] (after purification, Table 2), the Median diameter was 48 μm and 48.0 μm; the “Small particles less than 10.00 μm” value was determined as 2.5%. For the same compound, the Repose angle in data set [3] (after purification, Table 2) is 50 deg. Moreover, the “Rate of dissolution” value in data set [4] (setting [11]) was determined as 130 s.
